Reference: patent US20150126467A1, “USE OF ALGINATE OLIGOMERS TO ENHANCE THE EFFECTS OF ANTIFUNGAL AGENTS” (AlgiIPharma AS, priority 2011, published 2015)
Converted amounts (≈) assume the structure as drawn. Read-outs that look alike come from different tables or passages of the source. Each block holds one compound with its values, some of them ahead of it.

Experiments:
Format in all cases: cell-based
[1] = tested on: various Aspergillus species; assay: Robotic MIC assay, summary over species (Example 4); conditions: Aspergillus species tested
Method: Aspergillus sp. was grown at 30° C. for 96 h on YM-agar. Spores and aerial mycelium was cut out from the agar, suspended in 1 ml YM-broth and dispersed with glass beads (1 mm) in a mini bead beater for 2 min. Glycerol was added to the suspension to 10% and frozen at −80° C.
Each batch of frozen stock culture was then characterized in separate growth experiments using Mueller-Hinton broth to determine the minimum amount of inoculum giving satisfactory growth after 48 h under the conditions relevant for the MIC assay. This inoculation procedure is used in order to reduce day to day variation in bioassays.
Robotic minimum inhibitory concentration (MIC) assay was performed as follows. OligoG CF-5/20 was dissolved in medium (Mueller-Hinton broth) to 1.25 times of the desired assay concentrations (2, 6 and 10%). […].
(§1) Two-fold serial dilutions of antifungal agents were made in medium with different concentrations of OligoG CF-5/20, and the solutions were placed in four parallel wells in Nunc 384-well micro plates (30 μl per well in Nunc 242757 microplates). A group of 8 wells with no addition of antifungal agents for each OligoG CF-5/20 concentration was included on each micro plate as growth reference. Each well in the 384-well assay plates was added 7.5 μl of the MH medium inoculated with frozen stock culture of the relevant strains.
The microplates were placed in plastic bags and incubated without shaking at 34° C. The optical density at 600 nm in the microwells was measured after approximately 24 and 48 hours of incubation. […]

[2] = tested on: Cryptococcus neoformans CCUG 23451; assay: Robotic MIC assay, Cryptococcus neoformans (Example 6); conditions: for MIC: Cryptococcus neoformans, read-out: Minimum Inhibitory Concentration (MIC)
Method: Cryptococcus sp. was grown at 30° C. for 96 h on YM-agar. Spores and aerial mycelium was cut out from the agar, suspended in 1 ml YM-broth and dispersed with glass beads (1 mm) in a mini bead beater for 2 min. The suspension was added glycerol to 10% and frozen at −80° C. Each batch of frozen stock culture was then characterized in separate growth experiments using Mueller-Hinton and RPMI to determine the minimum amount of inoculum giving satisfactory growth after 48 h under the conditions relevant for the MIC assay. This inoculum procedure is used in order to reduce day to day variation in bioassays.
Robotic minimum inhibitory concentration (MIC) assay was performed as follows. OligoG CF-5/20 was dissolved in medium (Mueller-Hinton, RPMI with 2% glucose, Sabouraud or YM) to 1.25 times of the desired assay concentrations (2, 6 and 10%). […].
as §1, with “the” for “the MH”, “innoculated” for “inoculated”
The microplates were placed in plastic bags and incubated without shaking at 34° C. The optical density at 600 nm in the microwells was measured after certain time points from 24 h to 96 h of incubation. […]

[3] = tested on: C. tropicalis 544123 (urinary); assay: Robotic MIC assay, Candida strains (Example 2); conditions: Candida tropicalis, 48 h, Mueller-Hinton broth, read-out: Minimum Inhibitory Concentration (MIC)
Method: (§2) A robotic MIC Assay was performed as follows. OligoG CF-5/20 were dissolved in medium (Mueller-Hinton broth or M19 broth depending on experiment) to 1.25 times of the desired assay concentrations (2, 6 and 10%). The antifungal agents under test were dissolved in medium without OligoG CF-5/20 and in medium with OligoG CF-5/20 at a concentration of 1.25 times the highest desired assay concentrations. For experiments where the effect of adding different concentrations of Na^+ was investigated, NaCl was dissolved in medium to the desired concentrations (10, 30 and 50 mM).
(§3) Two-fold serial dilutions of antifungal agents were made in medium with different concentrations of OligoG CF-5/20, and the solutions were placed in four parallel wells in Nunc 384-well micro plates (30 μl per well in Nunc 242757 microplates). A group of 8 wells with no addition of antifungal agents for each OligoG CF-5/20 concentration was included on each microplate as growth reference. To each well in the 384-well assay plates was added 7.5 μl of medium inoculated with a frozen stock culture of Candida albicans (strain CCUG 39343).
(§4) The micro plates were placed in plastic bags and incubated without shaking at 34° C. The optical density at 600 nm in the microwells was measured after approximately 13, 18, 24 and 34 hours of incubation, and the relative growth yield in each well was calculated based on the growth in the reference groups.
(§5) The robotic assay described in Example 1 was employed in this Example. Strains were grown in Mueller-Hinton broth (LAB114 from Lab M Limited) and MIC values (μg ml-1) were determined for each antifungal after incubation for 48 h in the presence of 0, 2, 6 and 10% OligoG CF-5/20 G-fragments. […] OligoG CF-5/20 G-fragments were provided by AlgiPharma AS, Norway.
(§6) Candida strains used were as follows: • C. albicans CCUG 39343 (strain from culture collection) • C. parapsillosis ATCC 22019T (strain from culture collection) • C. krusei 141/03 (candidosis) • C. krusei 249/03(2) (ulceration) • C. lusitaniae 994/01(2) (candidosis) • C. tropicalis 12 (vaginal) • C. tropicalis 75 (vaginal) • C. tropicalis 519468 (urinary) • C. tropicalis 544123 (urinary) • C. tropicalis 250/03 (candidosis) • C. tropicalis AG1 (oral) • C. tropicalis T2.2 (oral)

[4] = tested on: C. tropicalis AG1 (oral); assay: Robotic MIC assay, Candida strains (Example 2); conditions: Candida tropicalis, 48 h, Mueller-Hinton broth, read-out: Minimum Inhibitory Concentration (MIC)
Method: as §2, §3, §4, §5, §6

[5] = tested on: C. tropicalis 12 (vaginal); assay: Robotic MIC assay, Candida strains (Example 2); conditions: Candida tropicalis, 48 h, Mueller-Hinton broth, read-out: Minimum Inhibitory Concentration (MIC)
Method: as §2, §3, §4, §5, §6

[6] = tested on: C. krusei 249/03(2) (ulceration); assay: Robotic MIC assay, Candida strains (Example 2); conditions: Pichia kudriavzevii, 48 h, Mueller-Hinton broth, read-out: Minimum Inhibitory Concentration (MIC)
Method: as §2, §3, §4, §5, §6

effect of addition of OligoG CF-5/20 on MIC values [1]: reduction in MIC values
MIC ([2]; CCUG23451, 72 h, RPMI 2% GLU, 0% OligoG, 72 hours): 4 µg/mL (≈ 9.61 µM)
MIC ([2]; CCUG23451, 72 h, RPMI 2% GLU, 2% OligoG, 72 hours): 2 µg/mL (≈ 4.81 µM)
MIC ([2]; CCUG23451, 72 h, RPMI 2% GLU, 6% OligoG, 72 hours): 0.5 µg/mL (≈ 1.2 µM)
MIC ([2]; CCUG23451, 72 h, Sabouraud, 0% OligoG, 72 hours): < 0.0156 µg/mL
MIC ([2]; CCUG23451, 72 h, Sabouraud, 2% OligoG, 72 hours): 0.0625 µg/mL (≈ 0.15 µM)
MIC ([2]; CCUG23451, 72 h, Sabouraud, 6% OligoG, 72 hours): 0.00781 µg/mL (≈ 0.0188 µM)
MIC ([2]; CCUG23451, 72 h, YM, 0% OligoG, 72 hours): 0.5 µg/mL (≈ 1.2 µM)
MIC ([2]; CCUG23451, 72 h, YM, 2% OligoG, 72 hours): 0.5 µg/mL (≈ 1.2 µM)
MIC ([2]; CCUG23451, 96 h, MH, 0% OligoG, 96 hours): 1 µg/mL (≈ 2.4 µM)
MIC ([2]; CCUG23451, 96 h, MH, 2% OligoG, 96 hours): 0.125 µg/mL (≈ 0.3 µM)
MIC ([2]; CCUG23451, 96 h, RPMI 2% GLU, 0% OligoG, 96 hours): 4 µg/mL (≈ 9.61 µM)
MIC ([2]; CCUG23451, 96 h, RPMI 2% GLU, 2% OligoG, 96 hours): 2 µg/mL (≈ 4.81 µM)
MIC ([2]; CCUG23451, 96 h, RPMI 2% GLU, 6% OligoG, 96 hours): 1 µg/mL (≈ 2.4 µM)
MIC ([2]; CCUG23451, 96 h, Sabouraud, 0% OligoG, 96 hours): 0.0625 µg/mL (≈ 0.15 µM)
MIC ([2]; CCUG23451, 96 h, Sabouraud, 2% OligoG, 96 hours): 0.25 µg/mL (≈ 0.601 µM)
MIC ([2]; CCUG23451, 96 h, Sabouraud, 6% OligoG, 96 hours): 0.5 µg/mL (≈ 1.2 µM)
MIC ([2]; CCUG23451, 96 h, YM, 0% OligoG, 96 hours): 0.5 µg/mL (≈ 1.2 µM)
MIC ([2]; CCUG23451, 96 h, YM, 2% OligoG, 96 hours): 1 µg/mL (≈ 2.4 µM)
Structure (SMILES): Clc1ccc(COC(Cn2ccnc2)c2ccc(Cl)cc2Cl)c(Cl)c1 (stereo not shown) [Miconazole, miconazole]
effect on MIC when OligoG is added to the medium ([2]; media: RPMI with 2% glucose, MH, Sabouraud, YM): reduction in MIC in RPMI with glucose and in MH medium

effect of addition of OligoG CF-5/20 on MIC values [1]: reduction in MIC values
MIC ([3]; 0% OligoG): > 32 µg/mL
MIC ([3]; 2% OligoG): > 32 µg/mL
MIC ([3]; 6% OligoG): > 32 µg/mL
MIC ([3]; 10% OligoG): > 32 µg/mL
MIC ([4]; 0% OligoG): > 32 µg/mL
MIC ([4]; 2% OligoG): 32 µg/mL (≈ 110 µM)
MIC ([4]; 6% OligoG): > 32 µg/mL
MIC ([4]; 10% OligoG): > 32 µg/mL
MIC ([5]; 0% OligoG): > 32 µg/mL
MIC ([5]; 2% OligoG): 16 µg/mL (≈ 54.9 µM)
MIC ([5]; 6% OligoG): > 32 µg/mL
MIC ([5]; 10% OligoG): 32 µg/mL (≈ 110 µM)
Structure (SMILES): CN(C/C=C/C#CC(C)(C)C)Cc1cccc2ccccc12 [Terbinafine, terbinafine]
MIC ([6]; 0% OligoG): 4 µg/mL (≈ 13.7 µM)
MIC ([6]; 2% OligoG): 4 µg/mL (≈ 13.7 µM)
MIC ([6]; 6% OligoG): 8 µg/mL (≈ 27.5 µM)
MIC ([6]; 10% OligoG): 4 µg/mL (≈ 13.7 µM)
